Key:
[1] = tested on: distinct kinases tested excluding mutant variants, typically 359 or 386 kinases; experiment: Kinase selectivity in competition binding assays (S10 score; kinases within 100-fold of JAK2 Kd); details: compound at 10 μM; fraction of kinases with inhibition of 90% or greater
Protocol: (§1) Competition binding assays used herein were developed, validated and performed as described in Fabian et al., Nature Biotechnology 2005, 23, 329-336. Kinases were produced as fusions to T7 phage (See, Fabian et al. or WO04/015142) or alternatively, the kinases were expressed in HEK-293 cells and subsequently tagged with DNA for PCR detection (See, WO08/005,310). For the binding assays, streptavidin-coated magnetic beads were treated with biotinylated affinity ligands for 30 min at rt to generate affinity resins. The liganded beads were blocked with excess biotin and washed with blocking buffer (SeaBlock (Pierce), 1% BSA, 0.05% Tween 20, 1 mM DTT) to remove unbound ligand and to reduce non-specific binding. Binding reactions were assembled by combining kinase, liganded affinity beads, and test compounds in 1× binding buffer (20% SeaBlock, 0.17×PBS, 0.05% Tween 20, 6 mM DTT). Test compounds were prepared as 100× stocks in DMSO and rapidly diluted into the aqueous environment. DMSO was added to control assays lacking a test compound. Primary screen interactions were performed in polypropylene 384-well plates in a final volume of 34 μL, while Kd determinations were performed in polystyrene 96-well plates in a final volume of 135 μL. The assay plates were incubated at room temperature with shaking for 1 hour, long enough for binding reactions to reach equilibrium, and the affinity beads were washed extensively with wash buffer (1×PBS, 0.05% Tween 20) to remove unbound protein. The beads were then resuspended in elution buffer (1×PBS, 0.05% Tween 20, 2 μM non-biotinylated affinity ligand) and incubated at room temperature with shaking for 30 min. The kinase concentration in the eluates was measured by quantitative PCR. Each kinase was tested individually against each compound. Kds were determined using eleven serial threefold dilutions. A selectivity score, which is a quantitative measure of selectivity of a compound against a panel of enzymes, may be calculated for a compound by dividing the number of enzymes for which a compound meets a set criteria, (for example, a binding constant of 100 nM or less), by the total number of enzymes tested.
In certain embodiments, the compounds provided herein bind to JAK2 kinase with higher specificity as compared to non-mutant and non-JAK family kinases. For certain compounds provided herein, binding constants for less than 10 non-mutant and non-JAK family kinases are within 100-fold of the binding constant for JAK2 kinase for compounds provided herein. For certain compounds provided herein, binding constants for less than 8 non-mutant and non-JAK family kinases are within 100-fold of the binding constant for JAK2 kinase for compounds provided herein. […]

JAK3 = molecular target: T1, JAK3 (Homo sapiens, UniProt P52333); experiment: Competition binding assay, Kd against JAK3
T1 construct: made in house; host or cells: T7 phage display or HEK-293 cells (alternatives; not specified per kinase)
T1 sequence (P52333 1-1124): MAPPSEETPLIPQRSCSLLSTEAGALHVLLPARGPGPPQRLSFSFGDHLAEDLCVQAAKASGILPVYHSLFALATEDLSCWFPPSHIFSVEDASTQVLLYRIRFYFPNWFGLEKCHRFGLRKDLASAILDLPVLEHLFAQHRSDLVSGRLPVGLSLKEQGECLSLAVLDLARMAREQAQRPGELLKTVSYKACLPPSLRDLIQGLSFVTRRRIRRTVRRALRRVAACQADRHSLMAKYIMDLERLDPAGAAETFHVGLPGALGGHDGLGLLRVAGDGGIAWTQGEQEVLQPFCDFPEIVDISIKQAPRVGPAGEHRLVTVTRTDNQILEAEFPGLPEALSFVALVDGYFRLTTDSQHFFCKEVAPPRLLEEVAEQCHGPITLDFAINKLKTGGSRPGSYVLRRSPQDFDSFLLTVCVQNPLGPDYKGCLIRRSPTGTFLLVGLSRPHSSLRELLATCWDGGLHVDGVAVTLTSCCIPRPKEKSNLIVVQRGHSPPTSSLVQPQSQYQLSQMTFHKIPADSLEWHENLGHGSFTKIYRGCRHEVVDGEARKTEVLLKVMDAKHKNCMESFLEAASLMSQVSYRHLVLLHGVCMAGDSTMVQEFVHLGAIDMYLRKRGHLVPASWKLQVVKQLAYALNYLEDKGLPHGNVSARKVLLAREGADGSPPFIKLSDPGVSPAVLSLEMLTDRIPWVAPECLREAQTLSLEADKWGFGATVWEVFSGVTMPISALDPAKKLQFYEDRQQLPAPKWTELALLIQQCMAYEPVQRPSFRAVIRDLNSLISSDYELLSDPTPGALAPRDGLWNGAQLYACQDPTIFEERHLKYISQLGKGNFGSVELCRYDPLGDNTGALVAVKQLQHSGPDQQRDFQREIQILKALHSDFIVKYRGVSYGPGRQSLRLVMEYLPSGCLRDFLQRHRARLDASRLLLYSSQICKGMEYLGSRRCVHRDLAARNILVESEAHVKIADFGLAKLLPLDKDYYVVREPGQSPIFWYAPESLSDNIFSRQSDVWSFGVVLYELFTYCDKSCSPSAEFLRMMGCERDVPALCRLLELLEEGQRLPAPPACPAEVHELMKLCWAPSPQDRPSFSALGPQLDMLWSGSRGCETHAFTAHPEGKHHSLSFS
Protocol: as §1

JAK2 = molecular target: T2, JAK2 (Homo sapiens, UniProt O60674); experiment: Competition binding assay, Kd against JAK2
T2 construct: made in house; host or cells: T7 phage display or HEK-293 cells (alternatives; not specified per kinase)
T2 sequence (O60674 whole entry): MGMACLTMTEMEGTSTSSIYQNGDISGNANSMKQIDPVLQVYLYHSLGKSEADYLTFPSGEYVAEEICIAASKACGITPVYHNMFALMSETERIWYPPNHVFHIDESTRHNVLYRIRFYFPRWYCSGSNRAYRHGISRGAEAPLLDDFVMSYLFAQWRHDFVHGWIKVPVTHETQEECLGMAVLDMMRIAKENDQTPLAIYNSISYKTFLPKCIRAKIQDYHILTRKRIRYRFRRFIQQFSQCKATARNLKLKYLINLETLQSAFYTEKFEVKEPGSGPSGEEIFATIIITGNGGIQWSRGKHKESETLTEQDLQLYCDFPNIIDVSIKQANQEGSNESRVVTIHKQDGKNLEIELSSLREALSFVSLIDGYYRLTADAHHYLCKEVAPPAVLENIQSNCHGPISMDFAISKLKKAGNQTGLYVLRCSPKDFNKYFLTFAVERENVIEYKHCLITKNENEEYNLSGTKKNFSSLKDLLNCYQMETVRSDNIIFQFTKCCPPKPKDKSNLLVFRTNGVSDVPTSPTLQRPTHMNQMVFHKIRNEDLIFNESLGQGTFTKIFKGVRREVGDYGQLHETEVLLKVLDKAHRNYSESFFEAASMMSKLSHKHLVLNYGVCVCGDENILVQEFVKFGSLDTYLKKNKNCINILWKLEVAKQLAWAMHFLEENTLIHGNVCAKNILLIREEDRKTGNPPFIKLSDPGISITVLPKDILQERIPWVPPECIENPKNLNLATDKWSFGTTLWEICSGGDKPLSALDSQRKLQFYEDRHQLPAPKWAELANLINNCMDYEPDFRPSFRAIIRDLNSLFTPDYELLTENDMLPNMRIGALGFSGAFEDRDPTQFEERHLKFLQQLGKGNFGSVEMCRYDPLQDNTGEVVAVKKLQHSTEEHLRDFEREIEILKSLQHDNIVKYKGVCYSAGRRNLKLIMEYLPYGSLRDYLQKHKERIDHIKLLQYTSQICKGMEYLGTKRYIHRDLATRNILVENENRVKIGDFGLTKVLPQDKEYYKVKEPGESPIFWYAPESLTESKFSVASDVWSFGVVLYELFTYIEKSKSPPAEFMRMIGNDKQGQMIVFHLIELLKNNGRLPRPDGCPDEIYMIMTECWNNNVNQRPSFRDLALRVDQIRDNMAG
Protocol: as §1

[2] = tested on: GM-CSFR/JAK2/STAT5 pathway; experiment: CSTF-1 cell-based reporter assay (beta-lactamase reporter, GM-CSF stimulated); details: Homo sapiens; csTF-1 cells, GM-CSF at 2 ng/mL, 4 hours; read-out: Cell Assay: CS TF-1 reporter assay IC50
Protocol: CSTF-1 cells are derived from the human erythroleukemia cell line that is growth dependent on GM-CSF and has an intact GM-CSFR/JAK2/STAT5 pathway. The cell line contains stably integrated beta-lactamase reporter gene under the control of the […] (irf 1) response element recognized by the activated transcription factor STATS. csTF-1 cells (Invitrogen K1219) were washed with assay media (97% OPTIMEM/0.5% dialyzed FBS/0.1 mM NEAA/1 mM Na pyr/P/S) and seeded in the same media at 5×10^5 cell/mL in T150 flask. After 16 hour incubation, cells were seeded at 2×10^5 cell/well in 50 μl volume, into Costar, clear bottom, 96-well assay plates. Serial dilutions of compounds were added to the plates with final DMSO concentration at 0.5% and GM-CSF at 2 ng/mL and the plates were then incubated at […] and 5% CO2 for 4 hours. The plates were brought to room temperature before adding Substrate Mixture according to manufacturer's protocol (Invitrogen, Catalog #K1085). The assay plates containing the substrate mixture were incubated in the dark at room temperature for 2 hours. Blue and green fluorescence was measured with excitation at 409 nm and emission at 460 nm (for blue) and excitation at 409 nm and emission at 530 nm (for green) using Spectra Max Gemini EM.

SMILES | S-Score: S(10) at 10 μM [1] | Kd (JAK3) | Kd (JAK2) | IC50 [2]
Cn1cnc(Nc2nc(C(O)c3ccc(F)cc3)nc3ccccc23)c1 (racemic) [Example 2, (R,S)-(4-fluorophenyl)(4-(1-methyl-1H-imidazol-4-ylamino)quinazolin-2-yl)methanol] | A (A ≦ 0.3) | 10 to 100 nM | ≤ 10 nM | 100 to 500 nM
OC(c1ccc(F)cc1)c1nc(Nc2c[nH]cn2)c2ccccc2n1 (racemic) [Example 3, (R,S)-(4-(1H-imidazol-4-ylamino)quinazolin-2-yl)(4-fluorophenyl)methanol] | A (A ≦ 0.3) | > 100 nM | 10 to 50 nM | > 500 nM
OC(c1ccc(F)cc1)c1nc(Nc2cscn2)c2ccccc2n1 (racemic) [Example 4, (R,S)-(4-fluorophenyl)(4-(thiazol-4-ylamino)quinazolin-2-yl)methanol] | A (A ≦ 0.3) | > 100 nM | 10 to 50 nM | > 500 nM
Cc1cnc(Nc2nc(C(O)c3ccc(F)cc3)nc3ccccc23)s1 (racemic) [Example 5, (R,S)-(4-fluorophenyl)(4-(5-methylthiazol-2-ylamino)quinazolin-2-yl)methanol] | A (A ≦ 0.3) | > 100 nM | ≤ 10 nM | > 500 nM

— US20130225614A1, “4-AZOLYLAMINOQUINAZOLINE DERIVATIVES AND METHODS OF USE THEREOF” (Ambit Biosciences Corporation, priority 2010, published 2013)
